According to PMC10660610 (Scientific Reports, 2023):

Legend:
Type in all cases: binding
MOR (mu-opioid receptor) = target: T1, MOR (mu-opioid receptor) (Rattus norvegicus, UniProt P33535); details: 50 mM Tris-HCl pH 7.4, 35 °C, 45 min; read-out: MOR^a / Ki ± S.E.M.
T1 construct: gene Oprm1; native full-length receptor in rat brain membrane homogenate

[1] = target: T2, KOR (kappa-opioid receptor) (Cavia porcellus, UniProt P41144); details: 50 mM Tris-HCl pH 7.4, 25 °C, 30 min; read-out: KOR^b / Ki ± S.E.M.
T2 construct: gene OPRK1; native full-length receptor in guinea pig brain membrane homogenate
T2 sequence (P41144 whole entry): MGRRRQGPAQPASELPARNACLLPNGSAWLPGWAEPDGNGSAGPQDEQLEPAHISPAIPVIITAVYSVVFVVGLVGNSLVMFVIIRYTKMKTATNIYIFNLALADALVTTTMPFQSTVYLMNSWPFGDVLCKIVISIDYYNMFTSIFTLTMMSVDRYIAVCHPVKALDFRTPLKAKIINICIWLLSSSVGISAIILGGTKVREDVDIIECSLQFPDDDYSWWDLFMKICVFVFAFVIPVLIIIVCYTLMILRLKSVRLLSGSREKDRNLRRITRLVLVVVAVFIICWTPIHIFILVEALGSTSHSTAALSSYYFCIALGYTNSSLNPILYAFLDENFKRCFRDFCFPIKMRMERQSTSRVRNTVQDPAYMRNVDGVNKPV
From the text: [3H]HS665 displacement, guinea pig brain membranes on KOR (kappa-opioid receptor)

[2] = target: T3, DOR (delta-opioid receptor) (Rattus norvegicus, UniProt P33533); details: 50 mM Tris-HCl pH 7.4, 35 °C, 45 min; read-out: DOR^a / Ki ± S.E.M.
T3 construct: gene Oprd1; native full-length receptor in rat brain membrane homogenate
T3 sequence (P33533 whole entry): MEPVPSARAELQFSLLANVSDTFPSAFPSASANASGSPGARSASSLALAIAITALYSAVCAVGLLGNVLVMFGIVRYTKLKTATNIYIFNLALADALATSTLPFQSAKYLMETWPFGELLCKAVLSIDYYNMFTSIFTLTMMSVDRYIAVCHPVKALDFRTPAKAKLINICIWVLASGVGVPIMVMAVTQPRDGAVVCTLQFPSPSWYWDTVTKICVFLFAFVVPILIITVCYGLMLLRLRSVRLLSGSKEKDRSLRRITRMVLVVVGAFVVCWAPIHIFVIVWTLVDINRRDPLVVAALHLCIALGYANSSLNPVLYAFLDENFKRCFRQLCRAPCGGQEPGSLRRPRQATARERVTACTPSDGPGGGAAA

T1 sequence (P33535 whole entry): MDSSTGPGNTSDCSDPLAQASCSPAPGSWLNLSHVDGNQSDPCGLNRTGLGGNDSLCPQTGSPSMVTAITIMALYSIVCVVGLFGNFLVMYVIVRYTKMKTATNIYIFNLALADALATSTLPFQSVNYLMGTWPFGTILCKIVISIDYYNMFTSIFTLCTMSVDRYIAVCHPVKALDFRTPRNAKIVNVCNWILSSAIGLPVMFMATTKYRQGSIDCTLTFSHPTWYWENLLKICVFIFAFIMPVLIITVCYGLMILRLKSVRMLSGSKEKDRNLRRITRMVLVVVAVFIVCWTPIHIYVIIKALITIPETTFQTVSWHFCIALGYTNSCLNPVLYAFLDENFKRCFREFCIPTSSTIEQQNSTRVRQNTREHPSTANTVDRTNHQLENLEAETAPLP

SMILES	Ki (MOR (mu-opioid receptor))	Ki [1]	Ki [2]
Oc1ccc2c3c1O[C@H]1[C@@H](O)C=C[C@H]4[C@@H](C2)N(CCN2CCOCC2)CC[C@@]341 [9a]	389 ± 17 nM	20.3 ± 4.2 nM	25.3 ± 1.5 nM
Oc1ccc2c3c1O[C@H]1[C@@H](O)C=C[C@H]4[C@@H](C2)N(CCN2CCCCC2)CC[C@@]341 [9b]	436 ± 18.8 nM	138 ± 42.3 nM	44.9 ± 7.2 nM
Oc1ccc2c3c1O[C@H]1[C@@H](O)C=C[C@H]4[C@@H](C2)N(CCN2CCCC2)CC[C@@]341 [9c]	62.3 ± 2.6 nM	6.9 ± 4.6 nM	34.1 ± 7.1 nM
O=C(CN1CC[C@]23c4c5ccc(O)c4O[C@H]2[C@@H](O)C=C[C@H]3[C@H]1C5)N1CCOCC1 [10a]	394 ± 186 nM	3.6 ± 1.9 nM	
O=C(CN1CC[C@]23c4c5ccc(O)c4O[C@H]2[C@@H](O)C=C[C@H]3[C@H]1C5)N1CCCCC1 [10b]	1500 ± 664 nM		> 10000 nM
O=C(CN1CC[C@]23c4c5ccc(O)c4O[C@H]2[C@@H](O)C=C[C@H]3[C@H]1C5)N1CCCC1 [10c]	521 ± 218 nM	10.7 ± 7.7 nM	839 ± 99.9 nM
O=C1CC[C@@]2(O)[C@H]3Cc4ccc(O)c5c4[C@@]2(CCN3CC(=O)N2CCOCC2)[C@H]1O5 [12a]	684 ± 32.7 nM		125 ± 39.6 nM
O=C1CC[C@@]2(O)[C@H]3Cc4ccc(O)c5c4[C@@]2(CCN3CC(=O)N2CCCCC2)[C@H]1O5 [12b]	1490 ± 612 nM		1140 ± 532 nM
